Publication PMC5613062 (Investigational New Drugs, 2017)
pIC50: −log10 of the molar value. Where two headings read alike, the source gives them in different places. Blank lines part the entries; values can stand above or below the molecule they belong to.

How the values were obtained:
tumor pERK = tested on: tumor pERK; design: method as in Study ARRY-0401; settings: 100 mg BD, Day 15 compared with pre-dose; 90% CI 50% to 93%; ref Study ARRY-0401; cited from earlier work
Ki67 = tested on: Ki67; design: method as in Study ARRY-0401; settings: 100 mg BD; ref Study ARRY-0401; cited from earlier work
[1] = design: method as in earlier work; settings: cynomolgus monkeys dosed for up to one month; ref IB; cited from earlier work
[2] = design: method as in earlier work; settings: ref IB; cited from earlier work
[3] = design: method as in earlier work; settings: daily oral administration in SBE-CD for 1 month, rats; ref IB; cited from earlier work
[4] = ref Study ARRY-0401, cited from earlier work
CYP1A2 = tested on: CYP1A2; design: method as in earlier work; settings: weak inhibition; ref IB; cited from earlier work
[5] = Pharmacokinetics alone and in combination, selumetinib + erlotinib arm; settings: for tmax: median (range)
[6] = Pharmacokinetics alone and in combination, selumetinib + temsirolimus arm; format: in vivo, human; settings: for AUC(0–8) / AUC(0–12) / Cmax / AUC(0-t): geometric mean (% CV); for tmax: median (range); for PK parameters when administered alone and in combination: selumetinib + temsirolimus arm; for AUC(0-t): read-out: AUC(0–8)
cell viability = tested on: cell viability; design: method as in earlier work; settings: more active than parent; ref IB; cited from earlier work
ERK phosphorylation = tested on: ERK phosphorylation; design: method as in earlier work; settings: cultured cells; more active than parent; ref IB; cited from earlier work
[7] = design: method as in LoRusso et al 2005; settings: Phase I-II trial; ref LoRusso et al 2005; cited from earlier work
[8] = design: method as in product label; settings: ref product label; cited from earlier work
[9] = ref product label, cited from earlier work
[10] = geometric mean (% CV), dosed alone, selumetinib 50 mg cohort (N = 14), erlotinib 100 mg QD
[11] = geometric mean (% CV), dosed alone, selumetinib 75 mg cohort (N = 6), erlotinib 100 mg QD
[12] = geometric mean (% CV), dosed in combination, selumetinib 50 mg BID (N = 12) + erlotinib 100 mg QD
[13] = geometric mean (% CV), dosed in combination, selumetinib 75 mg BID (N = 6) + erlotinib 100 mg QD
[14] = geometric mean, QD cohorts, dosed alone, selumetinib 50 mg cohort (N = 7), erlotinib 100 mg QD
[15] = geometric mean, QD cohorts, dosed alone, selumetinib 100 mg cohort (N = 6), erlotinib 100 mg QD
[16] = geometric mean, QD cohorts, dosed alone, selumetinib 150 mg cohort (N = 13), erlotinib 100 mg QD
[17] = geometric mean, QD cohorts, in combination, selumetinib 50 mg (N = 6) + erlotinib 100 mg QD
[18] = geometric mean, QD cohorts, in combination, selumetinib 100 mg (N = 6) + erlotinib 100 mg QD
[19] = geometric mean, QD cohorts, in combination, selumetinib 150 mg (N = 12) + erlotinib 100 mg QD
[20] = dosed alone, selumetinib 50 mg cohort (N = 25), temsirolimus 25 mg IV
[21] = dosed alone, selumetinib 75 mg cohort (N = 6), temsirolimus 25 mg IV
[22] = dosed in combination, selumetinib 50 mg BID (N = 22) + temsirolimus 25 mg IV
[23] = dosed in combination, selumetinib 75 mg BID (N = 5) + temsirolimus 25 mg IV

Structure (SMILES): Cn1cnc2c(F)c(Nc3ccc(Br)cc3Cl)c(C(=O)NOCCO)cc21 [AZD6244 free-base]
inhibition of tumor pERK, geometric mean (tumor pERK): 81%
patients with reduction in Ki67 (Ki67): 9/20
patients with reduction in Ki67 ≥50% of pre-dose (Ki67): 5 patients
tissue mineralization [1]: not apparent
solubility [2]: limited solubility
tolerability [3]: well tolerated
toxicity findings [3]: soft stools and gastrointestinal mucosal mineralization
patients with SD ([4]; RECIST, as of 30 September 2006): 17 patients
best overall response ([4]; RECIST): stable disease (SD)
patients with long term (≥5 months) SD ([4]; RECIST): 9 patients
MTD ([4]; free-base mix and drink formulation): 100 mg BD

AUC(0–8) [5, 10]: 141.3 (41.79) [13] ng•h/mL
AUC(0–12) [5, 10]: 173.4 (39.75) [12] ng•h/mL
Cmax [5, 10]: 41.69 (60.64) ng/mL
AUC(0–8) [5, 11]: 195.9 (36.04) ng•h/mL
AUC(0–12) [5, 11]: 223.9 (34.90) ng•h/mL
Cmax [5, 11]: 66.80 (75.74) ng/mL
AUC(0–8) [5, 12]: 130.4 (39.09) ng•h/mL
AUC(0–12) [5, 12]: 153.3 (39.37) ng•h/mL
Cmax [5, 12]: 43.37 (47.62) ng/mL
AUC(0–8) [5, 13]: 227.5 (57.77) ng•h/mL
AUC(0–12) [5, 13]: 262.7 (53.29) ng•h/mL
Cmax [5, 13]: 72.94 (91.01) ng/mL
AUC(0–8) [5, 14]: 156 ng·h/mL
AUC(0–12) [5, 14]: 181 ng·h/mL
Cmax [5, 14]: 45.6 ng/mL
AUC(0–8) [5, 15]: 347 ng·h/mL
AUC(0–12) [5, 15]: 401 ng·h/mL
Cmax [5, 15]: 109 ng/mL
AUC(0–8) [5, 16]: 279 ng·h/mL
AUC(0–12) [5, 16]: 331 ng·h/mL
Cmax [5, 16]: 79.6 ng/mL
AUC(0–8) [5, 17]: 149 ng·h/mL
AUC(0–12) [5, 17]: 181 ng·h/mL
Cmax [5, 17]: 44.5 ng/mL
AUC(0–8) [5, 18]: 404 ng·h/mL
AUC(0–12) [5, 18]: 454 ng·h/mL
Cmax [5, 18]: 129 ng/mL
AUC(0–8) [5, 19]: 286 ng·h/mL
AUC(0–12) [5, 19]: 344 ng·h/mL
Cmax [5, 19]: 68.3 ng/mL
tmax ([5]; QD cohorts, dosed alone, selumetinib 50 mg cohort (N = 7), erlotinib 100 mg QD): 1.50 (1.00–4.00) h
tmax ([5]; QD cohorts, dosed alone, selumetinib 100 mg cohort (N = 6), erlotinib 100 mg QD): 1.50 (1.50–4.00) h
tmax ([5]; QD cohorts, dosed alone, selumetinib 150 mg cohort (N = 13), erlotinib 100 mg QD): 1.50 (1.00–8.00) h
tmax ([5]; QD cohorts, in combination, selumetinib 50 mg (N = 6) + erlotinib 100 mg QD): 1.50 (1.50–8.00) h
tmax ([5]; QD cohorts, in combination, selumetinib 100 mg (N = 6) + erlotinib 100 mg QD): 1.50 (1.00–2.00) h
tmax ([5]; QD cohorts, in combination, selumetinib 150 mg (N = 12) + erlotinib 100 mg QD): 2.00 (1.00–4.00) h
tmax ([5]; dosed alone, selumetinib 50 mg cohort (N = 14), erlotinib 100 mg QD): 1.5 (1.0–12.0) h
tmax ([5]; dosed alone, selumetinib 75 mg cohort (N = 6), erlotinib 100 mg QD): 1.45 (1.0–2.0) h
tmax ([5]; dosed in combination, selumetinib 50 mg BID (N = 12) + erlotinib 100 mg QD): 1.25 (1.0–4.0) h
tmax ([5]; dosed in combination, selumetinib 75 mg BID (N = 6) + erlotinib 100 mg QD): 1.5 (1.0–2.0) h
PK parameters when administered alone and in combination ([5]; selumetinib + erlotinib arm): similar
AUC(0–8) [6, 20]: 124.3 (80.50) ng•h/mL
AUC(0–12) [6, 20]: 168.2 (54.21) [23] ng•h/mL
Cmax [6, 20]: 35.28 (109.00) ng/mL
AUC(0–8) [6, 21]: 231.1 (68.07) ng•h/mL
AUC(0–12) [6, 21]: 269.4 (62.60) ng•h/mL
Cmax [6, 21]: 75.34 (88.64) ng/mL
AUC(0–8) [6, 22]: 129.4 (59.96) ng•h/mL
AUC(0–12) [6, 22]: 168.2 (57.86) [14] ng•h/mL
Cmax [6, 22]: 38.51 (81.60) ng/mL
AUC(0–8) [6, 23]: 167.8 (51.40) ng•h/mL
AUC(0–12) [6, 23]: 190.5 (55.06) [4] ng•h/mL
Cmax [6, 23]: 48.36 (65.63) ng/mL
tmax [6, 20]: 1.5 (1.0–8.0) h
tmax [6, 21]: 1.5 (1.0–4.0) h
tmax [6, 22]: 2.0 (1.0–2.0) h
tmax [6, 23]: 2.0 (1.0–2.0) h
PK parameters when administered alone and in combination [6]: similar
Structure (SMILES): O=C(NOCCO)c1cc2nc[nH]c2c(F)c1Nc1ccc(Br)cc1Cl [N-desmethyl selumetinib]
pIC50 (CYP1A2): 4.72
activity relative to AZD6244 parent compound, inhibition of cell viability (cell viability): approximately 5 fold
activity relative to AZD6244 parent compound, inhibition of ERK phosphorylation (ERK phosphorylation): approximately 3 fold
plasma concentrations/exposure as % of AZD6244 concentrations/exposure ([4]; Part B of the study): ≤ 10%

Structure (SMILES): O=C(NOC[C@H](O)CO)c1ccc(F)c(F)c1Nc1ccc(I)cc1F [PD-0325901]
patients reporting rash [7]: 49%

Cmax [6, 21]: 749.2 (24.61) [5] ng/mL
AUC(0-t) ([6]; human, plasma, iv, dosed alone, selumetinib 50 mg cohort (N = 25), temsirolimus 25 mg IV): 1580 ng·h/mL
AUC(0–12) ([6]; human, plasma, iv, dosed alone, selumetinib 50 mg cohort (N = 25), temsirolimus 25 mg IV, read-out: AUC(0–12)): 1880 ng·h/mL
Cmax ([6]; human, plasma, iv, dosed alone, selumetinib 50 mg cohort (N = 25), temsirolimus 25 mg IV, read-out: Cmax): 669 ng/mL
AUC(0-t) ([6]; human, plasma, iv, dosed alone, selumetinib 75 mg cohort (N = 6), temsirolimus 25 mg IV): 1740 ng·h/mL
AUC(0–12) ([6]; human, plasma, iv, dosed alone, selumetinib 75 mg cohort (N = 6), temsirolimus 25 mg IV, read-out: AUC(0–12)): 1910 ng·h/mL
AUC(0-t) ([6]; human, plasma, iv, dosed in combination, selumetinib 50 mg BID (N = 22) + temsirolimus 25 mg IV): 1460 ng·h/mL
AUC(0–12) ([6]; human, plasma, iv, dosed in combination, selumetinib 50 mg BID (N = 22) + temsirolimus 25 mg IV, read-out: AUC(0–12)): 1610 ng·h/mL
Cmax ([6]; human, plasma, iv, dosed in combination, selumetinib 50 mg BID (N = 22) + temsirolimus 25 mg IV, read-out: Cmax): 651 ng/mL
AUC(0-t) ([6]; human, plasma, iv, dosed in combination, selumetinib 75 mg BID (N = 5) + temsirolimus 25 mg IV): 1540 ng·h/mL
AUC(0–12) ([6]; human, plasma, iv, dosed in combination, selumetinib 75 mg BID (N = 5) + temsirolimus 25 mg IV, read-out: AUC(0–12)): 1740 ng·h/mL
Cmax ([6]; human, plasma, iv, dosed in combination, selumetinib 75 mg BID (N = 5) + temsirolimus 25 mg IV, read-out: Cmax): 695 ng/mL
tmax [6, 22]: 1.0 (0.5–1.5) h
tmax [6, 23]: 0.5 (0.5–1.0) h
PK parameters when administered alone and in combination [6]: similar
Structure (SMILES): CO[C@H]1C[C@@H]2CC[C@@H](C)[C@@](O)(O2)C(=O)C(=O)N2CCCC[C@H]2C(=O)O[C@H]([C@H](C)C[C@@H]2CC[C@@H](OC(=O)C(C)(CO)CO)[C@H](OC)C2)CC(=O)[C@H](C)/C=C(\C)[C@@H](O)[C@@H](OC)C(=O)[C@H](C)C[C@H](C)/C=C/C=C/C=C/1C [Temsirolimus]
most common (incidence ≥30%) adverse reactions [8]: rash, asthenia, mucositis, nausea, edema, and anorexia

Structure (SMILES): CN(C)/N=N/c1[nH]cnc1C(N)=O [dacarbazine]
incidence of hepatic toxicity with hepatic vein thrombosis and hepatocellular necrosis resulting in death ([9]; patients treated): approximately 0.01%
patients affected by anorexia, nausea, and vomiting ([9]; with the initial few doses): Over 90%
